Experimental data: publication PMC8286840, “Identifying SARS-CoV-2 antiviral compounds by screening for small molecule inhibitors of Nsp3 papain-like protease” (Biochemical Journal, 2021)
Counter-ions that a name gives are not always drawn. Like-named read-outs stand apart in the source and are kept apart here. Where a SMILES comes first, the peptide text is derived from it.

Tests used:
[1] = target: T1, SARS-CoV-2 PLpro (nsp3 1564–1878) (Severe acute respiratory syndrome coronavirus 2, UniProt P0DTD1); assay: biochemical; parameters: FRET-quenched peptide (Pro3) cleavage by PLpro, 10 min pre-incubation, slope over 20 min, normalised to no-compound control; conditions: high concentration screen, read-out: % of control remaining
[2] = target: T1, SARS-CoV-2 PLpro (nsp3 1564–1878); assay: biochemical; parameters: FRET-quenched peptide (Pro3) cleavage by PLpro, 10 min pre-incubation, slope over 20 min, normalised to no-compound control; conditions: low concentration screen, read-out: % of control remaining
Procedure: The plates were organized with columns 3–22 containing the compounds; the remaining columns were used for reaction controls including substrate only and substrate with enzyme but no compound (Figure 3Aii). The PLpro enzyme was pre-incubated with the compounds for 10 min, and then the reaction was initiated by the addition of substrate. […] We incubated the inhibitors with PLpro before the enzymatic reaction so that the slow-binding inhibitors will not be missed out [21]. […] Fluorescence was read on a Spark multimode microplate reader (Tecan) with an excitation wavelength at 330 nm and emission wavelength at 420 nm. […] An amount of 5 µl of the enzyme was pre-incubated with compounds for 10 min before the addition of 15 µl substrate. Fluorescence was monitored at 2 min for 20 min with 3 min intervals giving a total of seven readings.

## C/C=C1\C(=O)C[C@H]2[C@@H]3CCC4=CC(=O)CC[C@]4(C)[C@H]3CC[C@]12C [Guggulsterone]
[1]; Well no.=6918
  remaining activity at 3.75 µM: 99.7%
[2]; Well no.=6918
  remaining activity at 1.25 µM: 103%

## O=C(O)C1=CCCNC1 [Guvacine hydrochloride]
[1]; Well no.=460
  remaining activity at 3.75 µM: 99.6%
[2]; Well no.=460
  remaining activity at 1.25 µM: 99.2%

## O=S(=O)(NCCNC/C=C/c1ccc(Br)cc1)c1cccc2cnccc12 [H 89 dihydrochloride - N-[2-[[3-(4-Bromophenyl)-2-propenyl]amino]ethyl]-5-isoquinolinesulfonamide dihydrochloride]
[1]; Well no.=2636
  remaining activity at 3.75 µM: 99.1%
[2]; Well no.=2636
  remaining activity at 1.25 µM: 95.6%

## CC1CNCCN1S(=O)(=O)c1cccc2cnccc12 (stereo not shown) [H-7 dihydrochloride]
[1]; Well no.=570
  remaining activity at 3.75 µM: 95.4%
[2]; Well no.=570
  remaining activity at 1.25 µM: 95.5%

## CNCCNS(=O)(=O)c1cccc2cnccc12 [H-8 dihydrochloride]
[1]; Well no.=893
  remaining activity at 3.75 µM: 99.3%
[2]; Well no.=893
  remaining activity at 1.25 µM: 103%

## CNCCNS(=O)(=O)c1cccc2cnccc12 [H-8, Dihydrochloride]
[1]; Well no.=2431
  remaining activity at 3.75 µM: 105%
[2]; Well no.=2431
  remaining activity at 1.25 µM: 106%

## NCCNS(=O)(=O)c1cccc2cnccc12 [H-9 dihydrochloride]
[1]; Well no.=340
  remaining activity at 3.75 µM: 100%
[2]; Well no.=340
  remaining activity at 1.25 µM: 96.1%

## O=S(=O)(NCCNC/C=C/c1ccc(Br)cc1)c1cccc2cnccc12 [H-89, Dihydrochloride]
[1]; Well no.=2610
  remaining activity at 3.75 µM: 86.3%
[2]; Well no.=2610
  remaining activity at 1.25 µM: 88.8%

## CCc1ccc(NC(=O)Nc2c[nH]c3ccccc23)cc1 [H-151]
[1]; Well no.=8555
  remaining activity at 3.75 µM: 103%
[2]; Well no.=8555
  remaining activity at 1.25 µM: 102%

## NCCCC[C@H](NC(=O)[C@H](Cc1c[nH]c2ccccc12)NC(=O)[C@@H](N)CCCCN)C(=O)O [H-Lys-Trp-Lys-OH] (H-Lys-Trp-Lys-OH)
[1]; Well no.=8180
  remaining activity at 3.75 µM: 103%
[2]; Well no.=8180
  remaining activity at 1.25 µM: 103%

## N[C@@H](Cc1ccccc1)C(=O)N[C@@H](Cc1ccccc1)C(=O)O [H-Phe-Phe-OH] (H-Phe-Phe-OH)
[1]; Well no.=8742
  remaining activity at 3.75 µM: 104%
[2]; Well no.=8742
  remaining activity at 1.25 µM: 96.6%

## N[C@@H](Cc1ccc(O)c(I)c1)C(=O)O [H-Tyr(3-I)-OH]
[1]; Well no.=7019
  remaining activity at 3.75 µM: 99.6%
[2]; Well no.=7019
  remaining activity at 1.25 µM: 99.7%

## CC(C)[C@H](N)C(=O)N1CCC[C@H]1C(=O)N1CCC[C@H]1C(=O)O [H-Val-Pro-Pro-OH (TFA)]
[1]; Well no.=7546
  remaining activity at 3.75 µM: 100%
[2]; Well no.=7546
  remaining activity at 1.25 µM: 100%

## CCOC(=O)C1=C(N)Oc2ccc(Br)cc2[C@H]1[C@H](C#N)C(=O)OCC [HA14-1]
[1]; Well no.=5007
  remaining activity at 3.75 µM: 101%
[1]; Well no.=6296
  remaining activity at 3.75 µM: 102%
[2]; Well no.=5007
  remaining activity at 1.25 µM: 105%
[2]; Well no.=6296
  remaining activity at 1.25 µM: 101%

## O=S(=O)(c1cccc2cnccc12)N1CCCNCC1 [HA1077]
[1]; Well no.=1669
  remaining activity at 3.75 µM: 106%
[2]; Well no.=1669
  remaining activity at 1.25 µM: 106%

## NC(N)=NCCNS(=O)(=O)c1cccc2cnccc12 [HA 1004, Dihydrochloride]
[1]; Well no.=2433
  remaining activity at 3.75 µM: 108%
[2]; Well no.=2433
  remaining activity at 1.25 µM: 111%

## O=S(=O)(c1cccc2cnccc12)N1CCCNCC1 [HA 1077, Dihydrochloride Fasudil]
[1]; Well no.=2646
  remaining activity at 3.75 µM: 100%
[2]; Well no.=2646
  remaining activity at 1.25 µM: 94.1%

## O=c1[nH]ccc2c(S(=O)(=O)N3CCCNCC3)cccc12 [HA 1100 hydrochloride - 1-[(1,2-Dihydro-1-oxo-5-isoquinolinyl)sulfonyl]hexahydro-1H-1,4-diazepine hydrochloride]
[1]; Well no.=2526
  remaining activity at 3.75 µM: 97.2%
[2]; Well no.=2526
  remaining activity at 1.25 µM: 95.2%

## O=S(=O)(c1cccc2cnccc12)N1CCNCC1 [HA-100]
[1]; Well no.=478
  remaining activity at 3.75 µM: 101%
[2]; Well no.=478
  remaining activity at 1.25 µM: 102%

## NC(N)=NCCNS(=O)(=O)c1cccc2cnccc12 [HA-1004 hydrochloride]
[1]; Well no.=522
  remaining activity at 3.75 µM: 99.3%
[2]; Well no.=522
  remaining activity at 1.25 µM: 101%

## CC(C)c1ccc(NC(=O)Cn2cnc3c2c(=O)n(C)c(=O)n3C)cc1 [HC-030031]
[1]; Well no.=5225
  remaining activity at 3.75 µM: 89.7%
[2]; Well no.=5225
  remaining activity at 1.25 µM: 94%

## Cc1c(C(=O)Nc2cccc(C(F)(F)F)c2)cc(-c2ccccc2)n1CCCN1CCOCC1 [HC-067047]
[1]; Well no.=5409
  remaining activity at 3.75 µM: 103%
[2]; Well no.=5409
  remaining activity at 1.25 µM: 102%

## O=C(CCc1ccc(CN[C@H](C(=O)OC2CCCC2)C2CCCCC2)cn1)NO [HDAC-IN-3]
[1]; Well no.=8172
  remaining activity at 3.75 µM: 104%
[2]; Well no.=8172
  remaining activity at 1.25 µM: 105%

## C[C@@H]1CN(C(=O)Nc2ccc(-c3nc(N4CCOCC4)c4cnn(CCCCCCC(=O)NO)c4n3)cc2)CCO1 [HDACs/mTOR Inhibitor 1]
[1]; Well no.=6964
  remaining activity at 3.75 µM: 93.8%
[2]; Well no.=6964
  remaining activity at 1.25 µM: 96.4%

## CCCCC#Cc1nc(N)c2ncn([C@@H]3O[C@H](C(=O)NCC)[C@@H](O)[C@H]3O)c2n1 [HE-NECA]
[1]; Well no.=756
  remaining activity at 3.75 µM: 98.5%
[2]; Well no.=756
  remaining activity at 1.25 µM: 97%

## CCOc1ccc(C(Nc2ccccn2)c2ccc3ccc(C)nc3c2O)cc1C (stereo not shown) [HLM006474]
[1]; Well no.=5926
  remaining activity at 3.75 µM: 100%
[2]; Well no.=5926
  remaining activity at 1.25 µM: 104%

## CC1(C)C=C(CN2C/C(=C\c3ccc(F)cc3)C(=O)/C(=C/c3ccc(F)cc3)C2)C(C)(C)N1O [HO-3867]
[1]; Well no.=8518
  remaining activity at 3.75 µM: 102%
[2]; Well no.=8518
  remaining activity at 1.25 µM: 101%

## CC(C)(C)NCC(O)c1ccc(O)cc1Cl (stereo not shown) [HOKU-81]
[1]; Well no.=8051
  remaining activity at 3.75 µM: 96.3%
[2]; Well no.=8051
  remaining activity at 1.25 µM: 93%

## Cc1ccc(Oc2ccnc3cc(-c4cnn(C5CCNCC5)c4)ccc23)cc1 [HS-1371]
[1]; Well no.=6820
  remaining activity at 3.75 µM: 85.5%
[2]; Well no.=6820
  remaining activity at 1.25 µM: 91.1%

## COc1cccc(-c2cc(F)ccc2C2Cc3nc(N)nc(C)c3C(=O)N2)n1 (stereo not shown) [HSP990 (NVP-HSP990)]
[1]; Well no.=8934
  remaining activity at 3.75 µM: 100%
[2]; Well no.=8934
  remaining activity at 1.25 µM: 93.5%

## CCC(=O)O[C@]1(C(=O)CCl)[C@@H](C)C[C@H]2[C@@H]3C[C@H](F)C4=CC(=O)C=C[C@]4(C)[C@@]3(F)[C@@H](O)C[C@@]21C [Halobetasol Propionate]
[1]; Well no.=8250
  remaining activity at 3.75 µM: 91.1%
[2]; Well no.=8250
  remaining activity at 1.25 µM: 94.9%

## COc1ccc2c3c([nH]c2c1)C(C)=NCC3 [Harmaline]
[1]; Well no.=3286
  remaining activity at 3.75 µM: 99.1%
[2]; Well no.=3286
  remaining activity at 1.25 µM: 99.5%

## Cc1nccc2c1[nH]c1ccccc12 [Harmane]
[1]; Well no.=612
  remaining activity at 3.75 µM: 92%
[1]; Well no.=3593
  remaining activity at 3.75 µM: 102%
[2]; Well no.=612
  remaining activity at 1.25 µM: 98.8%
[2]; Well no.=3593
  remaining activity at 1.25 µM: 101%

## COc1ccc2c(c1)[nH]c1c(C)nccc12 [Harmine]
[1]; Well no.=2092
  remaining activity at 3.75 µM: 88.2%
[1]; Well no.=3681
  remaining activity at 3.75 µM: 97.5%
[1]; Well no.=8343
  remaining activity at 3.75 µM: 83.5%
[2]; Well no.=2092
  remaining activity at 1.25 µM: 90.6%
[2]; Well no.=3681
  remaining activity at 1.25 µM: 97.5%
[2]; Well no.=8343
  remaining activity at 1.25 µM: 96.2%
